target: T1, HMG-CoA reductase (Homo sapiens, UniProt P04035); assay: HMG-CoA reductase (HMGCR) degradation in HepG2 cells by western blotting; type: cell-based; details: treated for 18 hours, ratio of HMG-CoA reductase to GAPDH, read-out: DC50
T1 construct: endogenous in cells; host or cells: HepG2 (Korea Cell Line Bank)
T1 sequence (P04035 1-888): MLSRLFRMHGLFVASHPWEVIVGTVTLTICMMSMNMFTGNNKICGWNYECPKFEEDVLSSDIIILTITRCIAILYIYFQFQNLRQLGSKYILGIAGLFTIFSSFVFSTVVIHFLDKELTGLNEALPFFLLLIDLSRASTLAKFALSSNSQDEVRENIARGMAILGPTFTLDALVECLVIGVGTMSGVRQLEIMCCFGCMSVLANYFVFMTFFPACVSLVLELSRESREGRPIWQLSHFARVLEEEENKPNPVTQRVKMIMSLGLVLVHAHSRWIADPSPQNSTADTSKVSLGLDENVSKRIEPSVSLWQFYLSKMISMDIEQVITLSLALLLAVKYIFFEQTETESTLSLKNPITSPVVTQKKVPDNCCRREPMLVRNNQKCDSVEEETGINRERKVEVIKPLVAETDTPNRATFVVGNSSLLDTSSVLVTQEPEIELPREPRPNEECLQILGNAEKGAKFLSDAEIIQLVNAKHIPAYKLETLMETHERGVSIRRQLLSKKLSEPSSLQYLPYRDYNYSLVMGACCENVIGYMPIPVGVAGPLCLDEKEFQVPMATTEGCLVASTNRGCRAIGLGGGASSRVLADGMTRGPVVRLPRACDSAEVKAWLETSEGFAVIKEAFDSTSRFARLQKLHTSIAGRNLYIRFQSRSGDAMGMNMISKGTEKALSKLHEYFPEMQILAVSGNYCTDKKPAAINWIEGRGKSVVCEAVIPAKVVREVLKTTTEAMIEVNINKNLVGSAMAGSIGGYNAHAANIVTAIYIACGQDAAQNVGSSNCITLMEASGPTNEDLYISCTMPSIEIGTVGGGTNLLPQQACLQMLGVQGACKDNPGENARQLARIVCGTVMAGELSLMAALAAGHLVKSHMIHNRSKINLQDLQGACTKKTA
How it was run: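 Western blot read-out: HMGCR protein probed (1:500, 16 hours at 4° C) alongside GAPDH loading control on 15 μg BCA-normalised RIPA lysates. Lysates came from HepG2 cells (P105–P110) exposed for 18 hours to a 10-point, three-fold series starting at 3 μM.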

SMILES	DC50 [nM]
C[C@H]1C=C2C=C[C@H](C)[C@H](CC[C@@H]3C[C@@H](O[Si](C)(C)C(C)(C)C)CC(=O)O3)[C@H]2[C@@H](OC(=O)NCCOCCOCCOCCOCCOCCOCCNc2cccc3c2C(=O)N(C2CCC(=O)NC2=O)C3=O)C1 (stereo partly drawn) [Compound 50, (1S,3R,7S,8S,8aR)-8-(2-((2R,4R)-4-((tert-butyldimethylsilyl)oxy)-6-oxotetrahydro-2H-pyran-2-yl)ethyl)-3,7-dimethyl-1,2,3,7,8,8a-hexahydronaphthalen-1-yl (20-((2-(2,6-dioxopiperidin-3-yl)-1,3-dioxoisoindolin-4-yl)amino)-3,6,9,12,15,18-hexaoxaicosyl)carbamate]	< 50
Cc1ncsc1-c1ccc(CNC(=O)[C@@H]2C[C@@H](O)CN2C(=O)[C@@H](NC(=O)COCCNC(=O)CCC(C)(C)C(=O)O[C@H]2C[C@@H](C)C=C3C=C[C@H](C)[C@H](CC[C@@H]4C[C@@H](O)CC(=O)O4)[C@H]32)C(C)(C)C)cc1 [Compound 8, (1S,3R,7S,8S,8aR)-8-(2-((2R,4R)-4-hydroxy-6-oxotetrahydro-2H-pyran-2-yl)ethyl)-3,7-dimethyl-1,2,3,7,8,8a-hexahydronaphthalen-1-yl 5-((2-(2-(((S)-1-((2S,4R)-4-hydroxy-2-((4-(4-methylthiazol-5-yl)benzyl)carbamoyl)pyrrolidin-1-yl)-3,3-dimethyl-1-oxobutan-2-yl)amino)-2-oxoethoxy)ethyl)amino)-2,2-dimethyl-5-oxopentanoate]	< 50
C[C@H]1C=C2C=C[C@H](C)[C@H](CC[C@@H]3C[C@@H](O[Si](C)(C)C(C)(C)C)CC(=O)O3)[C@H]2[C@@H](OC(=O)NCCCCCCCCNC(=O)COc2cccc3c2C(=O)N(C2CCC(=O)NC2=O)C3=O)C1 (stereo partly drawn) [Compound 96, (1S,3R,7S,8S,8aR)-8-(2-((2R,4R)-4-((tert-butyldimethylsilyl)oxy)-6-oxotetrahydro-2H-pyran-2-yl)ethyl)-3,7-dimethyl-1,2,3,7,8,8a-hexahydronaphthalen-1-yl (8-(2-((2-(2,6-dioxopiperidin-3-yl)-1,3-dioxoisoindolin-4-yl)oxy)acetamido)octyl)carbamate]	50 to 500
CN[C@@H](C)C(=O)N[C@H](C(=O)N1CCC[C@@H]1c1nc(C(=O)c2cccc(OCCOCCOCCNC(=O)O[C@H]3C[C@@H](C)C=C4C=C[C@H](C)[C@H](CC[C@@H]5C[C@@H](O)CC(=O)O5)[C@H]43)c2)cs1)C1CCCCC1 [Compound 34, (1S,3R,7S,8S,8aR)-8-(2-((2R,4R)-4-hydroxy-6-oxotetrahydro-2H-pyran-2-yl)ethyl)-3,7-dimethyl-1,2,3,7,8,8a-hexahydronaphthalen-1-yl (2-(2-(2-(3-(2-((R)-1-((S)-2-cyclohexyl-2-((S)-2-(methylamino)propanamido)acetyl)pyrrolidin-2-yl)thiazole-4-carbonyl)phenoxy)ethoxy)ethoxy)ethyl)carbamate]	> 500
C[C@H]1C=C2C=C[C@H](C)[C@H](CC[C@@H]3C[C@@H](O[Si](C)(C)C(C)(C)C)CC(=O)O3)[C@H]2[C@@H](OC(=O)NCCOCC(=O)NCC(=O)Nc2cccc3c2C(=O)N(C2CCC(=O)NC2=O)C3=O)C1 (stereo partly drawn) [Compound 144, (1S,3R,7S,8S,8aR)-8-(2-((2R,4R)-4-((tert-butyldimethylsilyl)oxy)-6-oxotetrahydro-2H-pyran-2-yl)ethyl)-3,7-dimethyl-1,2,3,7,8,8a-hexahydronaphthalen-1-yl (2-(2-((2-((2-(2,6-dioxopiperidin-3-yl)-1,3-dioxoisoindolin-4-yl)amino)-2-oxoethyl)amino)-2-oxoethoxy)ethyl)carbamate]	50 to 500
C[C@H]1C=C2C=C[C@H](C)[C@H](CC[C@@H]3C[C@@H](O)CC(=O)O3)[C@H]2[C@@H](OC(=O)NCCCCCCN2CCC(Nc3cccc4c3C(=O)N(C3CCC(=O)NC3=O)C4=O)CC2)C1 (stereo partly drawn) [Compound 127, (1S,3R,7S,8S,8aR)-8-(2-((2R,4R)-4-hydroxy-6-oxotetrahydro-2H-pyran-2-yl)ethyl)-3,7-dimethyl-1,2,3,7,8,8a-hexahydronaphthalen-1-yl (6-(4-((2-(2,6-dioxo piperidin-3-yl)-1,3-dioxoisoindolin-4-yl)amino)piperidin-1-yl)hexyl)carbamate]	50 to 500
Cc1ncsc1-c1ccc(CNC(=O)[C@@H]2C[C@@H](O)CN2C(=O)[C@@H](NC(=O)COCCOCCOCCOCCNC(=O)CCC(C)(C)C(=O)O[C@H]2C[C@@H](C)C=C3C=C[C@H](C)[C@H](CC[C@@H]4C[C@@H](O)CC(=O)O4)[C@H]32)C(C)(C)C)cc1 [Compound 11, (S)-(1S,3R,7S,8S,8aR)-8-(2-((2R,4R)-4-hydroxy-6-oxotetrahydro-2H-pyran-2-yl)ethyl)-3,7-dimethyl-1,2,3,7,8,8a-hexahydronaphthalen-1-yl 3-((2S,4R)-4-hydroxy-2-((4-(4-methylthiazol-5-yl)benzyl)carbamoyl)pyrrolidine-1-carbonyl)-2,2,23,23-tetramethyl-5,20-dioxo-7,10,13,16-tetraoxa-4,19-diazatetracosan-24-oate]	< 50
C[C@H]1C=C2C=C[C@H](C)[C@H](CC[C@@H]3C[C@@H](O[Si](C)(C)C(C)(C)C)CC(=O)O3)[C@H]2[C@@H](OC(=O)NCCCOC2CCN(C(=O)COc3cccc4c3C(=O)N(C3CCC(=O)NC3=O)C4=O)CC2)C1 (stereo partly drawn) [Compound 134, (1S,3R,7S,8S,8aR)-8-(2-((2R,4R)-4-((tert-butyldimethylsilyl)oxy)-6-oxotetrahydro-2H-pyran-2-yl)ethyl)-3,7-dimethyl-1,2,3,7,8,8a-hexahydronaphthalen-1-yl (3-((1-(2-((2-(2,6-dioxopiperidin-3-yl)-1,3-dioxoisoindolin-4-yl)oxy)acetyl)piperidin-4-yl)oxy)propyl)carbamate]	50 to 500

More lines, now with the values ahead:

DC50 [nM]	SMILES
< 50	C[C@H]1C=C2C=C[C@H](C)[C@H](CC[C@@H](O)C[C@@H](O)CC(=O)O)[C@H]2[C@@H](OC(=O)NCCOCCOCCNc2cccc3c2C(=O)N(C2CCC(=O)NC2=O)C3=O)C1 (stereo partly drawn) [Compound 106, (3R,5R)-7-((1S,2S,6R,8S,8aR)-8-(((2-(2-(2-((2-(2,6-dioxopiperidin-3-yl)-1,3-dioxoisoindolin-4-yl)amino)ethoxy)ethoxy)ethyl)carbamoyl)oxy)-2,6-dimethyl-1,2,6,7,8,8a-hexahydronaphthalen-1-yl)-3,5-dihydroxyheptanoic acid]
< 50	Cc1ncsc1-c1ccc(CNC(=O)[C@@H]2C[C@@H](O)CN2C(=O)[C@@H](NC(=O)COCCOCCOCCOCCOCCNC(=O)CCC(C)(C)C(=O)O[C@H]2C[C@@H](C)C=C3C=C[C@H](C)[C@H](CC[C@@H]4C[C@@H](O)CC(=O)O4)[C@H]32)C(C)(C)C)cc1 [Compound 12, (S)-(1S,3R,7S,8S,8aR)-8-(2-((2R,4R)-4-hydroxy-6-oxotetrahydro-2H-pyran-2-yl)ethyl)-3,7-dimethyl-1,2,3,7,8,8a-hexahydronaphthalen-1-yl 3-((2S,4R)-4-hydroxy-2-((4-(4-methylthiazol-5-yl)benzyl)carbamoyl)pyrrolidine-1-carbonyl)-2,2,26,26-tetramethyl-5,23-dioxo-7,10,13,16,19-pentaoxa-4,22-diazaheptacosan-27-oate]
< 50	C[C@H]1C=C2C=C[C@H](C)[C@H](CC[C@@H]3C[C@@H](O)CC(=O)O3)[C@H]2[C@@H](OC(=O)NCCCOCCOCCOCCCNc2cccc3c2C(=O)N(C2CCC(=O)NC2=O)C3=O)C1 (stereo partly drawn) [Compound 157, (1S,3R,7S,8S,8aR)-8-(2-((2R,4R)-4-hydroxy-6-oxotetrahydro-2H-pyran-2-yl)ethyl)-3,7-dimethyl-1,2,3,7,8,8a-hexahydronaphthalen-1-yl (3-(2-(2-(3-((2-(2,6-dioxopiperidin-3-yl)-1,3-dioxoisoindolin-4-yl)amino)propoxy)ethoxy)ethoxy)propyl)carbamate]
< 50	C[C@H]1C=C2C=C[C@H](C)[C@H](CC[C@@H]3C[C@@H](O)CC(=O)O3)[C@H]2[C@@H](OC(=O)NCCCCN2CCC(Nc3cccc4c3C(=O)N(C3CCC(=O)NC3=O)C4=O)CC2)C1 (stereo partly drawn) [Compound 73, (1S,3R,7S,8S,8aR)-8-(2-((2R,4R)-4-hydroxy-6-oxotetrahydro-2H-pyran-2-yl)ethyl)-3,7-dimethyl-1,2,3,7,8,8a-hexahydronaphthalen-1-yl (4-(4-((2-(2,6-dioxopiperidin-3-yl)-1,3-dioxoisoindolin-4-yl)amino)piperidin-1-yl)butyl)carbamate]
